{
  "source": "patent US20070128217A1",
  "about": "(priority 2003, published 2007)",
  "key": {"[1]": {"test_system": "rabbit serum obtained by immunizing a rabbit with the SARS-CoV strain Frankfurt 1", "format": "binding", "parameters": "Binding of a rabbit serum to linear peptides / Binding of a rabbit serum to looped peptides / Rabbit serum linear peptides / Rabbit serum looped peptides / Binding of a rabbit serum to linear peptides of protein N of SARS-CoV Urbani (Rabbit serum linear peptides) / Binding of a rabbit serum to looped/cyclic peptides of protein N of SARS-CoV Urbani (Rabbit serum looped peptides): unit not given here"}, "[2]": {"test_system": "antibodies in sera from SARS patients (sera 1a, 1b, 2, 6, 37, 62, London, SARS-yellow, SARS-green)", "format": "binding, human", "parameters": "Binding of serum 6 to linear peptides of protein X1 of SARS-CoV Urbani / Binding of serum 37 to linear peptides of protein X1 of SARS-CoV Urbani / Binding of serum 6 to looped/cyclic peptide (PEPSCAN-ELISA) / Binding of serum 37 to looped/cyclic peptide (PEPSCAN-ELISA) / Binding of serum 37 to looped/cyclic peptides of protein X1 of SARS-CoV Urbani / Binding of serum 6 to linear peptides of protein X2 / Binding of serum 37 to linear peptides of protein X2 / Binding of serum 37 to looped/cyclic peptides of protein X2 of SARS-CoV Urbani / Binding of serum 6 to linear peptides of protein M of SARS-CoV Urbani / Binding of serum 37 to linear peptides of protein M of SARS-CoV Urbani / Binding of serum 6 to looped/cyclic peptides of protein M of SARS-CoV Urbani / Binding of serum 37 to looped/cyclic peptides of protein M of SARS-CoV Urbani / Binding of serum 6 to linear peptides of protein X3 of SARS-CoV Urbani / Binding of serum 37 to linear peptides of protein X3 of SARS-CoV Urbani / Binding of serum 37 to looped/cyclic peptides of protein X3 of SARS-CoV Urbani / Binding of serum 6 to linear peptides of protein X4 of SARS-CoV Urbani / Binding of serum 37 to linear peptides of protein X4 of SARS-CoV Urbani / Binding of serum 37 to looped/cyclic peptides of protein X4 of SARS-CoV Urbani / Binding of serum 6 to linear peptides of protein X5 of SARS-CoV Urbani / Binding of serum 37 to linear peptides of protein X5 of SARS-CoV Urbani / Binding of serum 37 to looped/cyclic peptides of protein X5 of SARS-CoV Urbani / Binding of serum 6 to linear peptides of protein N of SARS-CoV Urbani / Binding of serum 37 to linear peptides of protein N of SARS-CoV Urbani / Binding of serum 6 to linear peptide (PEPSCAN-ELISA) / Binding of serum 1a to looped/cyclic peptides of protein N of SARS-CoV Urbani / Binding of serum 1b to looped/cyclic peptides of protein N of SARS-CoV Urbani / Binding of serum 2 to looped/cyclic peptides of protein N of SARS-CoV Urbani / Binding of serum 6 to looped/cyclic peptides of protein N of SARS-CoV Urbani / Binding of serum 37 to looped/cyclic peptides of protein N of SARS-CoV Urbani / Binding of serum 62 to looped/cyclic peptides of protein N of SARS-CoV Urbani / Binding of serum London to looped/cyclic peptides of protein N of SARS-CoV Urbani / Binding of serum SARS-green to looped/cyclic peptides of protein N of SARS-CoV Urbani: unit not given here"}, "[3]": {"test_system": "control sera (pooled serum of ten healthy LUMC hospital workers; commercial negative donor pooled serum from the Dutch bloodbank)", "format": "binding, human", "parameters": "Binding of Control serum LUMC to linear peptides / Binding of Control serum Blood-bank to linear peptides / Binding of Control serum LUMC to looped peptides / Binding of Control Serum Blood-Bank to Looped peptides / Binding of Control serum LUMC to linear peptides of the protein M of SARS-CoV Urbani / Binding of Control serum Blood-bank to linear peptides of the protein M of SARS-CoV Urbani / Binding of Control serum LUMC to looped peptides of the protein M of SARS-CoV Urbani / Binding of Control Serum Blood-Bank to Looped peptides of the protein M of SARS-CoV Urbani: unit not given here"}},
  "data": [
    {"sequence": "VIIRGHLRMAGHPLG", "values": [
      {"measurement": "Rabbit serum linear peptides", "setting": "[1]", "value": 0.4},
      {"measurement": "Rabbit serum looped peptides", "setting": "[1]", "value": 0.6}
    ]},
    {"sequence": "TVEELKQLLEQWNLV", "values": [
      {"measurement": "Recognition of the peptide by the rabbit serum", "setting": "[1]", "value": "recognized"}
    ]},
    {"sequence": "TGTLIVNSVLLPLAF", "values": [
      {"measurement": "Binding of serum 1a to linear peptides of protein E of SARS-CoV Urbani", "setting": "[2]", "value": 0.7},
      {"measurement": "Binding of serum 1b to linear peptides of protein E of SARS-CoV Urbani", "setting": "[2]", "value": 0.5},
      {"measurement": "Binding of serum 2 to linear peptides of protein E of SARS-CoV Urbani", "setting": "[2]", "value": 0.3},
      {"measurement": "Binding of serum 6 to linear peptides of protein E of SARS-CoV Urbani", "setting": "[2]", "value": 0.6},
      {"measurement": "Binding of serum 37 to linear peptides of protein E of SARS-CoV Urbani", "setting": "[2]", "value": 0.7},
      {"measurement": "Binding of serum 62 to linear peptides of protein E of SARS-CoV Urbani", "setting": "[2]", "value": 0.6},
      {"measurement": "Binding of serum London to linear peptides of protein E of SARS-CoV Urbani", "setting": "[2]", "value": 0.4},
      {"measurement": "Binding of serum SARS-green to linear peptides of protein E of SARS-CoV Urbani", "setting": "[2]", "value": 0.4},
      {"measurement": "Binding of serum SARS-yellow to linear peptides of protein E of SARS-CoV Urbani", "setting": "[2]", "value": 0.2}
    ]},
    {"sequence": "VQQELYSPLFLIVAA", "values": [
      {"measurement": "Binding of Control Serum Blood-Bank to Looped peptides", "setting": "[3]", "value": 0.7},
      {"measurement": "Binding of Control serum Blood-bank to linear peptides", "setting": "[3]", "value": 0.6},
      {"measurement": "Binding of Control serum LUMC to linear peptides", "setting": "[3]", "value": 0.5},
      {"measurement": "Binding of Control serum LUMC to looped peptides", "setting": "[3]", "value": 0.6},
      {"measurement": "Binding of serum 1a to linear peptides of protein X4 of SARS-CoV Urbani", "setting": "[2]", "value": 0.7},
      {"measurement": "Binding of serum 1a to looped/cyclic peptides of protein X4 of SARS-CoV Urbani", "setting": "[2]", "value": 0.8},
      {"measurement": "Binding of serum 1b to linear peptides of protein X4 of SARS-CoV Urbani", "setting": "[2]", "value": 0.6},
      {"measurement": "Binding of serum 1b to looped/cyclic peptides of protein X4 of SARS-CoV Urbani", "setting": "[2]", "value": 0.5},
      {"measurement": "Binding of serum 2 to linear peptides of protein X4 of SARS-CoV Urbani", "setting": "[2]", "value": 0.6},
      {"measurement": "Binding of serum 2 to looped/cyclic peptides of protein X4 of SARS-CoV Urbani", "setting": "[2]", "value": 0.7},
      {"measurement": "Binding of serum 6 to linear peptides of protein X4 of SARS-CoV Urbani", "setting": "[2]", "value": 0.9},
      {"measurement": "Binding of serum 6 to looped/cyclic peptides of protein X4 of SARS-CoV Urbani", "setting": "[2]", "value": 0.5},
      {"measurement": "Binding of serum 37 to linear peptides of protein X4 of SARS-CoV Urbani", "setting": "[2]", "value": 0.7},
      {"measurement": "Binding of serum 37 to looped/cyclic peptides of protein X4 of SARS-CoV Urbani", "setting": "[2]", "value": 0.7},
      {"measurement": "Binding of serum 62 to linear peptides of protein X4 of SARS-CoV Urbani", "setting": "[2]", "value": 0.7},
      {"measurement": "Binding of serum 62 to looped/cyclic peptides of protein X4 of SARS-CoV Urbani", "setting": "[2]", "value": 0.7},
      {"measurement": "Binding of serum London to linear peptides of protein X4 of SARS-CoV Urbani", "setting": "[2]", "value": 0.9},
      {"measurement": "Binding of serum London to looped/cyclic peptides of protein X4 of SARS-CoV Urbani", "setting": "[2]", "value": 0.3},
      {"measurement": "Binding of serum SARS-green to linear peptides of protein X4 of SARS-CoV Urbani", "setting": "[2]", "value": 0.6},
      {"measurement": "Binding of serum SARS-green to looped/cyclic peptides of protein X4 of SARS-CoV Urbani", "setting": "[2]", "value": 0.4},
      {"measurement": "Binding of serum SARS-yellow to linear peptides of protein X4 of SARS-CoV Urbani", "setting": "[2]", "value": 0.5},
      {"measurement": "Binding of serum SARS-yellow to looped/cyclic peptides of protein X4 of SARS-CoV Urbani", "setting": "[2]", "value": 0.8},
      {"measurement": "Recognition of the peptide by sera of SARS-CoV infected individuals, and form (linear, looped/cyclic) in which it is recognized", "setting": "[2]", "value": "recognized in looped/cyclic form"}
    ]},
    {"sequence": "AVIIRGHLRMAGHPL", "values": [
      {"measurement": "Rabbit serum linear peptides", "setting": "[1]", "value": 0.3},
      {"measurement": "Rabbit serum looped peptides", "setting": "[1]", "value": 0.6}
    ]},
    {"sequence": "TVHATATIPLQASLP", "values": [
      {"measurement": "Binding of a rabbit serum to linear peptides", "setting": "[1]", "value": 0.4},
      {"measurement": "Binding of a rabbit serum to looped peptides", "setting": "[1]", "value": 0.5}
    ]},
    {"sequence": "RGHLRMAGHPLGRCD", "values": [
      {"measurement": "Rabbit serum linear peptides", "setting": "[1]", "value": 0.0},
      {"measurement": "Rabbit serum looped peptides", "setting": "[1]", "value": 0.3}
    ]},
    {"sequence": "WYLHEGHQTAAFRDV", "values": [
      {"measurement": "Rabbit serum linear peptides", "setting": "[1]", "value": 0.3},
      {"measurement": "Rabbit serum looped peptides", "setting": "[1]", "value": 0.0}
    ]},
    {"sequence": "IGVAFLAVPQSATKI", "values": [
      {"measurement": "Binding of Control Serum Blood-Bank to Looped peptides", "setting": "[3]", "value": 0.5},
      {"measurement": "Binding of Control serum Blood-bank to linear peptides", "setting": "[3]", "value": 0.8},
      {"measurement": "Binding of Control serum LUMC to linear peptides", "setting": "[3]", "value": 0.8},
      {"measurement": "Binding of Control serum LUMC to looped peptides", "setting": "[3]", "value": 0.5}
    ]},
    {"sequence": "IGAVIIRGHLRMAGH", "values": [
      {"measurement": "Rabbit serum linear peptides", "setting": "[1]", "value": 0.3},
      {"measurement": "Rabbit serum looped peptides", "setting": "[1]", "value": 0.8}
    ]},
    {"sequence": "VQQELYSPLFLTVAA", "values": [
      {"measurement": "Rabbit serum linear peptides", "setting": "[1]", "value": 0.5},
      {"measurement": "Rabbit serum looped peptides", "setting": "[1]", "value": 0.2}
    ]}
  ]
}
